In patent publication US12157741B2, “Macrocyclic inhibitors of DYRK1A” (DANA-FARBER CANCER INSTITUTE, INC., priority 2018, dated 2024):
Read-outs that look alike come from different tables or passages of the source.

Assays:
Assay type in all cases: binding
[1] = target: various enzymes (Homo sapiens, UniProt O60331); settings: compound 1 uM
Protocol: (§1) Ambit profiling was conducted in accordance with the manufacturer's instructions.

[2] = target: various enzymes (Homo sapiens, UniProt O96013); settings: compound 1 uM
Protocol: as §1

[3] = target: various enzymes (Homo sapiens, UniProt P00519, E255K)
Protocol: as §1

[4] = target: various enzymes (Homo sapiens, UniProt P00533, T790M)
Protocol: as §1

[5] = target: various enzymes (Homo sapiens, UniProt P11362); settings: compound 1 uM
Protocol: as §1

[6] = target: various enzymes (Homo sapiens, UniProt P19525); settings: compound 1 uM
Protocol: as §1

[7] = target: various enzymes (Homo sapiens, UniProt P25098); settings: compound 1 uM
Protocol: as §1

[8] = target: various enzymes (Homo sapiens, UniProt P29317); settings: compound 1 uM
Protocol: as §1

[9] = target: various enzymes (Homo sapiens, UniProt P36888, D835H)
Protocol: as §1

[10] = target: various enzymes (Homo sapiens, UniProt P36888, D835Y)
Protocol: as §1

[11] = target: various enzymes (Homo sapiens, UniProt P36894); settings: compound 1 uM
Protocol: as §1

[12] = target: various enzymes (Homo sapiens, UniProt P41743); settings: compound 1 uM
Protocol: as §1

[13] = target: various enzymes (Homo sapiens, UniProt P42336, I800L)
Protocol: as §1

[14] = target: various enzymes (Homo sapiens, UniProt P49137); settings: compound 1 uM
Protocol: as §1

[15] = target: various enzymes (Homo sapiens, UniProt P50613); settings: compound 1 uM
Protocol: as §1

[16] = target: various enzymes (Homo sapiens, UniProt P50750); settings: compound 1 uM
Protocol: as §1

[17] = target: various enzymes (Homo sapiens, UniProt P51817); settings: compound 1 uM
Protocol: as §1

[18] = target: various enzymes (Homo sapiens, UniProt P51957); settings: compound 1 uM
Protocol: as §1

[19] = target: various enzymes (Homo sapiens, UniProt P53355); settings: compound 1 uM
Protocol: as §1

[20] = target: various enzymes (Homo sapiens, UniProt P78356); settings: compound 1 uM
Protocol: as §1

[21] = target: various enzymes (Homo sapiens, UniProt Q13164); settings: compound 1 uM
Protocol: as §1

[22] = target: various enzymes (Homo sapiens, UniProt Q13470); settings: compound 1 uM
Protocol: as §1

[23] = target: various enzymes (Homo sapiens, UniProt Q13555); settings: compound 1 uM
Protocol: as §1

[24] = target: various enzymes (Homo sapiens, UniProt Q32MK0); settings: compound 1 uM
Protocol: as §1

[25] = target: various enzymes (Homo sapiens, UniProt Q86UE8); settings: compound 1 uM
Protocol: as §1

[26] = target: various enzymes (Homo sapiens, UniProt Q86Y07); settings: compound 1 uM
Protocol: as §1

[27] = target: T1, various enzymes (Homo sapiens, UniProt Q8IVH8); settings: compound 1 uM
T1 sequence (Q8IVH8 1-894): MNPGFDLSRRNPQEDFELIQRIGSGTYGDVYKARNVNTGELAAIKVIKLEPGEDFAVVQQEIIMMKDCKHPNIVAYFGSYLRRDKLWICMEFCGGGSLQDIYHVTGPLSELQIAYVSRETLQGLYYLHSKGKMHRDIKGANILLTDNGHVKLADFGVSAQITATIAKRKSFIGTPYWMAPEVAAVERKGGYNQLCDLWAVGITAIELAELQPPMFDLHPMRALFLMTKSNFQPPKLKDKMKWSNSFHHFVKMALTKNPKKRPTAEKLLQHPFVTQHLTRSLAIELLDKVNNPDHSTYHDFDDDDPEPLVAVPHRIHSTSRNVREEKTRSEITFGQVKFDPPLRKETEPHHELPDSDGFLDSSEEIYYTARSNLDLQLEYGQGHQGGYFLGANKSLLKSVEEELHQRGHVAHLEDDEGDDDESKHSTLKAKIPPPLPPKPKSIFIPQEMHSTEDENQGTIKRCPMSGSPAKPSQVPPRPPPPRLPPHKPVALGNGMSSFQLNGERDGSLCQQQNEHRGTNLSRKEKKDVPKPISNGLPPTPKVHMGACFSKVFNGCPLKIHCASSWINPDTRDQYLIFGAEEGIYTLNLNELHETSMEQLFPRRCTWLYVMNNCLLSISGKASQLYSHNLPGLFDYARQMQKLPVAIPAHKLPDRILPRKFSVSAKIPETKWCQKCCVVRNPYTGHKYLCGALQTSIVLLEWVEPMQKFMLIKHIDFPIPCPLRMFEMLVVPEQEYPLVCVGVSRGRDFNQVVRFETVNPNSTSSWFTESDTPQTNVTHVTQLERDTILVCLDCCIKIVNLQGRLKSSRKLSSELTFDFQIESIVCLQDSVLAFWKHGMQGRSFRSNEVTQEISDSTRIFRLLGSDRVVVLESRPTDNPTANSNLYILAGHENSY
Protocol: as §1

[28] = target: various enzymes (Homo sapiens, UniProt Q8N4C8); settings: compound 1 uM
Protocol: as §1

[29] = target: various enzymes (Homo sapiens, UniProt Q8NEV4); settings: compound 1 uM
Protocol: as §1

[30] = target: various enzymes (Homo sapiens, UniProt Q8TF76); settings: compound 1 uM
Protocol: as §1

[31] = target: various enzymes (Homo sapiens, UniProt Q99755); settings: compound 1 uM
Protocol: as §1

[32] = target: various enzymes (Homo sapiens, UniProt Q9H2K8); settings: compound 1 uM
Protocol: as §1

Sequence of various enzymes (Homo sapiens, UniProt P51957) (P51957 whole entry): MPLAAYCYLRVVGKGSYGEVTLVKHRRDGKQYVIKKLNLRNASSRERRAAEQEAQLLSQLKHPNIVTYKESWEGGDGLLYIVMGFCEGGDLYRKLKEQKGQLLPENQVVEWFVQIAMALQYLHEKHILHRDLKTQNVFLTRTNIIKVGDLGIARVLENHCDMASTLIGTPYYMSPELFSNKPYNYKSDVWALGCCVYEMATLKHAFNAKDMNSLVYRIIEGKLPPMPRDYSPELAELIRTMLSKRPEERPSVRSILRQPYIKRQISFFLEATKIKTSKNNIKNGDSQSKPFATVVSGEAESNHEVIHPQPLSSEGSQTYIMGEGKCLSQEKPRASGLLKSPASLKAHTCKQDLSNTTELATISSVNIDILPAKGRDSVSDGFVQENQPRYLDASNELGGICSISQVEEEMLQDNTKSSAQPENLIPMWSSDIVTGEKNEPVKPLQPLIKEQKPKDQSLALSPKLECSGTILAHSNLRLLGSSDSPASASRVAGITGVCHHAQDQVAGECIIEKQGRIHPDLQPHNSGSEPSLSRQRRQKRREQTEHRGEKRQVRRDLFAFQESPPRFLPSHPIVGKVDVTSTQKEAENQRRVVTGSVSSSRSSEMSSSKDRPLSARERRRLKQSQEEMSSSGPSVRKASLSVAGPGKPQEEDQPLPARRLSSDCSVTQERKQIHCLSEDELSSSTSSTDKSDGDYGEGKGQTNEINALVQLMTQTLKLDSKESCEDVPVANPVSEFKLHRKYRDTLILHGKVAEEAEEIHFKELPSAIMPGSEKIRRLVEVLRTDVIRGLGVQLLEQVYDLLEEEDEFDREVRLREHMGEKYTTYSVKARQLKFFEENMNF
Sequence of various enzymes (Homo sapiens, UniProt P53355) (P53355 whole entry): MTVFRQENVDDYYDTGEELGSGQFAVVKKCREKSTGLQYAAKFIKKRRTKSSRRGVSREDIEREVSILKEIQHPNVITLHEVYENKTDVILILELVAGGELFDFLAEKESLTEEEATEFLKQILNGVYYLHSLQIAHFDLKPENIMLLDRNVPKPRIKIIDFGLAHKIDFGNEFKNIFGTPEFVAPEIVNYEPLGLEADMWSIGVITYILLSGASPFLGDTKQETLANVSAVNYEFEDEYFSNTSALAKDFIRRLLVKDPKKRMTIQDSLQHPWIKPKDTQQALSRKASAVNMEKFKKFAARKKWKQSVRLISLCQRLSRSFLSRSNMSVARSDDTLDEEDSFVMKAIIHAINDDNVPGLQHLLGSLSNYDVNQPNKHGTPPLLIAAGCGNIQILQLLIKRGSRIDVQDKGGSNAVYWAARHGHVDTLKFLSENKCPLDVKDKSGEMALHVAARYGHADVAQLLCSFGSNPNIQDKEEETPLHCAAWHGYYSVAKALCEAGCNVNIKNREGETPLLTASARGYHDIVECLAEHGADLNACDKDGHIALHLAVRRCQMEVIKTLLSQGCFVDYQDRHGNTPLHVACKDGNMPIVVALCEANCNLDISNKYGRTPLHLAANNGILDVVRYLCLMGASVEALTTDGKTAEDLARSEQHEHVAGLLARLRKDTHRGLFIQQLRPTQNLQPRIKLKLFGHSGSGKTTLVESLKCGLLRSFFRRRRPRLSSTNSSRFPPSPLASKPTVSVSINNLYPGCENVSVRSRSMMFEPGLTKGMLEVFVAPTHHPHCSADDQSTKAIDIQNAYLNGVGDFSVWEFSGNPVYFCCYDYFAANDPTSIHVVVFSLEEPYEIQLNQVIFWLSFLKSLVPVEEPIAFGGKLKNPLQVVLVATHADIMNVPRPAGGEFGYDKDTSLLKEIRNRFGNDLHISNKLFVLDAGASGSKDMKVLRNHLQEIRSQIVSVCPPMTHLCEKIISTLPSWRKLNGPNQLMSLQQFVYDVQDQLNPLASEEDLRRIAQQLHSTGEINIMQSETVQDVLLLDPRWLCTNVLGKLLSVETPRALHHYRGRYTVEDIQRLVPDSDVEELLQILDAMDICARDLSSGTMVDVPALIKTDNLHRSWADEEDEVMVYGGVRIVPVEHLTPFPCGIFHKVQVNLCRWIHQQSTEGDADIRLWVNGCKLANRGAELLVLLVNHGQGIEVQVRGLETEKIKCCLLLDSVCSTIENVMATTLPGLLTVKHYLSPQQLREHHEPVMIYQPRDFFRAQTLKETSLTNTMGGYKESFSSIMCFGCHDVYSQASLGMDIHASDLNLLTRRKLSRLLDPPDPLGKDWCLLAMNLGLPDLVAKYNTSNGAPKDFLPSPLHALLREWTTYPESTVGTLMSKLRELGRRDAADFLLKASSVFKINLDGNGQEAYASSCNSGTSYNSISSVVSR
Sequence of various enzymes (Homo sapiens, UniProt O60331) (O60331 whole entry): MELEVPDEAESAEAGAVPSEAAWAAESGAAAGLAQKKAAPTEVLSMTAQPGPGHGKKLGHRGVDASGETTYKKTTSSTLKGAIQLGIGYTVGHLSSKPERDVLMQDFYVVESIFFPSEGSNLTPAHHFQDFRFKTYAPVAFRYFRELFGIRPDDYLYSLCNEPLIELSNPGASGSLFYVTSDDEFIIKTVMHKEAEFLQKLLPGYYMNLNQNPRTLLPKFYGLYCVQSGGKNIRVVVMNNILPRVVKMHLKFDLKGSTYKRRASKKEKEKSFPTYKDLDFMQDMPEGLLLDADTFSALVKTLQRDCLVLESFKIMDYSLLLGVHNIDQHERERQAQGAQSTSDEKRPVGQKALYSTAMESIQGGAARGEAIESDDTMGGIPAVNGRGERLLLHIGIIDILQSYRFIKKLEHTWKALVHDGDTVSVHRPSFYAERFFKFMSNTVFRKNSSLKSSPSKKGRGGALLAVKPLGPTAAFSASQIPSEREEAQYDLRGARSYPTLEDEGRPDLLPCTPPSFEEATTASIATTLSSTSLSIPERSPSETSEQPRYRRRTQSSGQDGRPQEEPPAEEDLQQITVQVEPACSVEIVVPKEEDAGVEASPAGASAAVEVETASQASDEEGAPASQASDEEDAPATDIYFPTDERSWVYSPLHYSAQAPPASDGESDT
Sequence of various enzymes (Homo sapiens, UniProt P41743) (P41743 whole entry): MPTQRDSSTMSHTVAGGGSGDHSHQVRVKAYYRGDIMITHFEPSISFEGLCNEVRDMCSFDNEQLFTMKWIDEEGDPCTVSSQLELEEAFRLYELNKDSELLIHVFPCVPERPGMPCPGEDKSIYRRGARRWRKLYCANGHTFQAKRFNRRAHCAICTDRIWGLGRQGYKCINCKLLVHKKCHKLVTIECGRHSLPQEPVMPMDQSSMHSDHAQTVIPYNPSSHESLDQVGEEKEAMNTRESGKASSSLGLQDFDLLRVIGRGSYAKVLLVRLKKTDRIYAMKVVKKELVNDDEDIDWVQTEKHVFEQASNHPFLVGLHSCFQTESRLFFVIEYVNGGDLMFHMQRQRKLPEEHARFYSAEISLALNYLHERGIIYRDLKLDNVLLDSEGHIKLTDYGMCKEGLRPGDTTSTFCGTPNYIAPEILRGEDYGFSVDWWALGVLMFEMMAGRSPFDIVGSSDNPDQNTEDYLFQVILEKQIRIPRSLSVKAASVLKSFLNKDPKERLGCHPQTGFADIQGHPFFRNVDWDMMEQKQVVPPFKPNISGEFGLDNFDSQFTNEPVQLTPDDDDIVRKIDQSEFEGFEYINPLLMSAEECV
Sequence of various enzymes (Homo sapiens, UniProt Q13470) (Q13470 whole entry): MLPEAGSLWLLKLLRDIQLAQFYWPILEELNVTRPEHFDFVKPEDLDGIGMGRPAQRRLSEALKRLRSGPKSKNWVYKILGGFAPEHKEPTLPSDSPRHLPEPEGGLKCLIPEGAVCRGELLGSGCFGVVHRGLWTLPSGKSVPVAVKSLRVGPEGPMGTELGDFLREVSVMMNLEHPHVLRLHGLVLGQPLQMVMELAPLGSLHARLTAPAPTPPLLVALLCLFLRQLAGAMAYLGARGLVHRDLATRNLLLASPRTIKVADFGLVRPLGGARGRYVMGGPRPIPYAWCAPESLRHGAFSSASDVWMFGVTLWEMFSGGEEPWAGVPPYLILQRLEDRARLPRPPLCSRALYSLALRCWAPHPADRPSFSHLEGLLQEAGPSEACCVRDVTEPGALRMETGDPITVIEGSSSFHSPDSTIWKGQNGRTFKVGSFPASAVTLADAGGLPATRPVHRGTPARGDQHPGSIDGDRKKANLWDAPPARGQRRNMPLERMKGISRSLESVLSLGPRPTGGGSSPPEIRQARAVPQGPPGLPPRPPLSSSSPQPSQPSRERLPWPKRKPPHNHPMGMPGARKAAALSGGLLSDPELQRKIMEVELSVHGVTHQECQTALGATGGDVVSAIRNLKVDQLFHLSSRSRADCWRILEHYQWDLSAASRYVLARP
Sequence of various enzymes (Homo sapiens, UniProt Q86UE8) (Q86UE8 whole entry): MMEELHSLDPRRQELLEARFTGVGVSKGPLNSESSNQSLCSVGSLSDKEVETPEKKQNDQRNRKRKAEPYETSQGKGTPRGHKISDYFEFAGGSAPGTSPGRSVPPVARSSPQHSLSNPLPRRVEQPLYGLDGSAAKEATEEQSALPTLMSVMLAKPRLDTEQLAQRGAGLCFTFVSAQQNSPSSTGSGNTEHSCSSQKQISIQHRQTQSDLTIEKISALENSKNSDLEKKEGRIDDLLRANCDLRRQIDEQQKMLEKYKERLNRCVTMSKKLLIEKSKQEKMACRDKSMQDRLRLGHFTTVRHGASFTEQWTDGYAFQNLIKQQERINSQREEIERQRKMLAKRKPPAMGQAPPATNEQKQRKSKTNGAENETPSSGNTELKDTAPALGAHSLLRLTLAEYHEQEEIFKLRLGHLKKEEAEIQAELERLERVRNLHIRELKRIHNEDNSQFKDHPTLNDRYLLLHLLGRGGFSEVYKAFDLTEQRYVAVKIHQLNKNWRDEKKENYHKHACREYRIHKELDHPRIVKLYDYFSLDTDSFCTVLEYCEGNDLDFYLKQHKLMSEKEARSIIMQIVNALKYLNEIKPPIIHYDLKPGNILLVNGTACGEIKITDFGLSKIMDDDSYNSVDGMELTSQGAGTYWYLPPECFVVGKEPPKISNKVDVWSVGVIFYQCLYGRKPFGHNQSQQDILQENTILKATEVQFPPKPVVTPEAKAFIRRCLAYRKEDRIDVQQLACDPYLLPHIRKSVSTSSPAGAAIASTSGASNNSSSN

| Compound | Ambit profiling: PIP5K1C [1] | Ambit profiling: PAK4 [2] | Ambit profiling: FGFR1 [5] | Ambit profiling: PRKR [6] | Ambit profiling: GRK2 [7] | Ambit profiling: EPHA2 [8] | Ambit profiling: BMPR1A [11] | Ambit profiling: PRKCI [12] | Ambit profiling: MAPKAPK2 [14] | Ambit profiling: CDK7 [15] | Ambit profiling: CDK9 [16] | Ambit profiling: PRKX [17] | Ambit profiling: NEK4 [18] | Ambit profiling: DAPK1 [19] | Ambit profiling: PIP5K2B [20] | Ambit profiling: ERK5 [21] | Ambit profiling: TNK1 [22] | Ambit profiling: CAMK2G [23] | Ambit profiling: MLCK [24] | Ambit profiling: TLK2 [25] | other results |
| --- | --- | --- | --- | --- | --- | --- | --- | --- | --- | --- | --- | --- | --- | --- | --- | --- | --- | --- | --- | --- | --- |
| CC(C)N1Cc2nn(C)cc2-c2cnc3[nH]cc(c3c2)-c2cn(nc2C(F)(F)F)CCCC1=O [Compound 45, (Z)-5-isopropyl-31-methyl-13-(trifluoromethyl)-11H,21H,31H-5-aza-2(3,5)-pyrrolo[2,3-b]pyridina-1(4,1),3(4,3)-dipyrazolacyclononaphan-6-one] | 5.8 | 76 | 2.5 | 71 | 100 | 48 | 97 | 9.1 | 100 | 13 | 60 | 100 | 93 | 92 | 23 | 100 | 12 | 24 | 99 | 86 | Ambit profiling: ABL1(E255K)-phosphorylated ([3]; compound 1 uM): 7.7; Ambit profiling: EGFR(T790M) ([4]; compound 1 uM): 65; Ambit profiling: FLT3(D835H) ([9]; compound 1 uM): 1.6; Ambit profiling: FLT3(D835Y) ([10]; compound 1 uM): 1.3; Ambit profiling: PIK3CA(I800L) ([13]; compound 1 uM): 87; Ambit profiling: VRK2 [26]: 37; Ambit profiling: MAP4K3 [27]: 18; Ambit profiling: MINK [28]: 1.8; Ambit profiling: MYO3A [29]: 23; Ambit profiling: HASPIN [30]: 2.3; Ambit profiling: PIP5K1A [31]: 27; Ambit profiling: TAOK3 [32]: 22 |
| COc1c2c(nn1C)CN(C(C)C)C(=O)CCCn1cc(c(C(F)(F)F)n1)-c1c[nH]c3ncc-2cc13 [Compound 50, (Z)-5-isopropyl-35-methoxy-31-methyl-13-(trifluoromethyl)-11H,21H,31H-5-aza-2(3,5)-pyrrolo[2,3-b]pyridina-1(4,1),3(4,3)-dipyrazolacyclononaphan-6-one] | 32 | 91 | 5.8 | 84 | 87 | 56 | 88 | 42 | 100 | 6 | 47 | 100 | 100 | 65 | 35 | 70 | 28 | 31 | 82 | 91 | Ambit profiling: ABL1(E255K)-phosphorylated [3]: 2; Ambit profiling: EGFR(T790M) [4]: 32; Ambit profiling: FLT3(D835H) [9]: 2.8; Ambit profiling: FLT3(D835Y) [10]: 0.7; Ambit profiling: PIK3CA(I800L) [13]: 86; Ambit profiling: VRK2 [26]: 20; Ambit profiling: MAP4K3 [27]: 16; Ambit profiling: MINK [28]: 0; Ambit profiling: MYO3A [29]: 11; Ambit profiling: HASPIN [30]: 42; Ambit profiling: PIP5K1A [31]: 19; Ambit profiling: TAOK3 [32]: 63 |
